This is an account of results in paper PMC11275008, “Anti-Inflammatory and Cancer-Preventive Potential of Chamomile (Matricaria chamomilla L.): A Comprehensive In Silico and In Vitro Study” (Biomedicines, 2024).

Each structure is given as a SMILES string.

The target of this assay is T1, NF-κB (recombinant human NF-κB; docking used NF-κB p65-RelA) (Homo sapiens, UniProt Q04206).
T1 construct: commercial recombinant protein (Sino Biological); labelled with RED-NHS 2nd generation dye on lysines
Description: microscale thermophoresis. Type of assay: binding. (In general: MST reads how a fluorescent partner responds to local heating, with and without ligand.)

T1 sequence (Q04206 whole entry): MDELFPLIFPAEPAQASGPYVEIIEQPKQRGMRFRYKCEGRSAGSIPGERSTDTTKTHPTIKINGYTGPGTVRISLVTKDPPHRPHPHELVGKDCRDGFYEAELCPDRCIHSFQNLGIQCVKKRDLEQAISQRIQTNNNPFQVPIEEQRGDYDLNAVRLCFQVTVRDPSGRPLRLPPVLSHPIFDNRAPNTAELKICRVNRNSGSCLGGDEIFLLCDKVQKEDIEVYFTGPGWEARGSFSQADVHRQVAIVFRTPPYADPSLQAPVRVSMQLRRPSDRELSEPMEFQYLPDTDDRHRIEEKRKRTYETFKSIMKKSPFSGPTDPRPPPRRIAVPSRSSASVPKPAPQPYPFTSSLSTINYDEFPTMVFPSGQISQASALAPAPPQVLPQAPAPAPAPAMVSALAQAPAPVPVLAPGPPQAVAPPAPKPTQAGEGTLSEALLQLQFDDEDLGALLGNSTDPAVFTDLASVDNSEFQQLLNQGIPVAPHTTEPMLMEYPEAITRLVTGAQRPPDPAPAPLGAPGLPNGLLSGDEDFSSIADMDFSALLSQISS

For `CC1(C)CC[C@]2(C)CC[C@]3(C)C(=CC[C@@H]4[C@@]5(C)CC[C@H](O)C(C)(C)[C@@H]5CC[C@]43C)[C@@H]2C1` [β-amyrin], the Kd (in general, a measure of binding affinity in units of concentration) amounted to 943 ± 113 nM.
